Experimental data: article PMC4038399, “Experimental validation of [sequence]^comb virtual ligand screening results for eight proteins yields novel nanomolar and micromolar binders” (Journal of Cheminformatics, 2014)
Converted amounts (≈) assume the structure as drawn. Like-named read-outs stand apart in the source and are kept apart here.

What was measured:
[1] = target: Nucleosome assembly protein 1 (NAP1) (Plasmodium knowlesi, UniProt A0A384KYS3); assay: Thermal shift (thermal melt) assay, Sypro orange; type: binding, P. knowlesi; conditions: for Kd: approximate, computed from the thermal shift
Chain of Nucleosome assembly protein 1 (NAP1) (A0A384KYS3 entry or part of it): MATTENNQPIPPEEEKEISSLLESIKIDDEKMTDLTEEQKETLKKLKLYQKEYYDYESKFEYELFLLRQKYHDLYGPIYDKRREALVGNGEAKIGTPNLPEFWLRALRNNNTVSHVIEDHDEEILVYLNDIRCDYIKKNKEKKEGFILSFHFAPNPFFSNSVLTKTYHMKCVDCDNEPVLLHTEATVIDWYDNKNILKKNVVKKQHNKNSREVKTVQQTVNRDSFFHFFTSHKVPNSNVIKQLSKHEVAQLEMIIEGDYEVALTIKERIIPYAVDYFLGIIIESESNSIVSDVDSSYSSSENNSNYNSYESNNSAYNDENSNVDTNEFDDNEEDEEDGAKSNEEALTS
Experimental: (§1) High throughput thermal shift assays were carried out following established guidelines (Additional file 1: Table S1). Protein melting curves were obtained from samples aliquoted in 96-well plates using a RealPlex quantitative PCR instrument from Eppendorf (Eppendorf, NY, USA), with Sypro orange dye from Invitrogen as the fluorescent probe. A uniform final concentration of 5 X (supplied as a 5000 X stock solution) was used in all experiments. The dye was excited at 465 nm and emission recorded at 580 nm using the instrument’s filters. A heating ramp of 1°C/min from 25°C to 74°C was used, and one data point acquired for each degree increment. For standardization, different buffers and pH were checked. Thereafter, 100 mM HEPES pH 7.3 and 150 mM NaCl were used in all unfolding experiments. The volume of each reaction was 20 μl, and appropriate dye and protein controls were included. All experiments were done with a minimum of two replicates, with the mean value considered for further analysis. Several drugs/small molecules interact with Sypro orange and lead to aberrant signal enhancements. An additional control to rule out drug-dye interaction was carried out with all the constituents kept constant except for the protein of interest. The protein/protein-drug curves were reported after subtracting the respective dye alone/drug-dye curves.
(§2) Each melting curve was assigned a quality score (Q), the ratio of the melting-associated increase in fluorescence (ΔFmelt) to the total fluorescence range (ΔFtotal). Q = 1 is a high-quality curve, while Q = 0 indicates no thermal transition. Though an arbitrary Q value cutoff was not applied to judge curve quality, the curves were manually curated with Q values reported. […] These were ignored (see Table 1).
(§3) Subsequent to standardization, (see SI Methods), the validity of the top 1% of […]^comb’s predictions on the test set of eight diverse proteins was examined. To be conservative, we focused only on those protein/ligand pairs showing single sigmoidal thermal transition curves. The fit to Boltzmann’s equation (Eq. 1) was employed to estimate the melting temperature from the observed intensity, I.
(§4) (4) I=Imin+Imax-Imin/1+e^Tm-T/a
(§5) Imin and Imax are the minimum and maximum intensities; a denotes the slope of the curve at the transition midpoint temperate, Tm. To estimate thermodynamic parameters, both van’t Hoff and Gibbs-Helmholtz analyses were done. To estimate the approximate ligand-binding affinity at Tm, Eq. (2) from reference was used with slight modifications; ΔCp is ignored.
(§6) (5) KLTm=exp-ΔH/R1/Tm-1/To/L
(§7) KL(Tm) is the ligand association constant and [L] is the free ligand concentration at Tm ([LTm] ~ [L]total, when [L]total > > the total concentration of protein. KD is the inverse of KL(Tm).
(§8) Thermal unfolding of the eight benchmark proteins was carried out in a 20 μl reaction mix with 100 mM HEPES pH 7.3, 150 mM NaCl, 5 X Sypro orange dye, 10 μM protein and 1 mM of all the predicted ligands.

[2] = target: T1, Tryptophanyl tRNA synthetase (TrpRS) (Homo sapiens, UniProt P23381); assay: Thermal shift (thermal melt) assay, Sypro orange; type: binding, H. sapiens; conditions: for Q (quality score): ratio ΔFmelt/ΔFtotal
T1 sequence (P23381 1-471): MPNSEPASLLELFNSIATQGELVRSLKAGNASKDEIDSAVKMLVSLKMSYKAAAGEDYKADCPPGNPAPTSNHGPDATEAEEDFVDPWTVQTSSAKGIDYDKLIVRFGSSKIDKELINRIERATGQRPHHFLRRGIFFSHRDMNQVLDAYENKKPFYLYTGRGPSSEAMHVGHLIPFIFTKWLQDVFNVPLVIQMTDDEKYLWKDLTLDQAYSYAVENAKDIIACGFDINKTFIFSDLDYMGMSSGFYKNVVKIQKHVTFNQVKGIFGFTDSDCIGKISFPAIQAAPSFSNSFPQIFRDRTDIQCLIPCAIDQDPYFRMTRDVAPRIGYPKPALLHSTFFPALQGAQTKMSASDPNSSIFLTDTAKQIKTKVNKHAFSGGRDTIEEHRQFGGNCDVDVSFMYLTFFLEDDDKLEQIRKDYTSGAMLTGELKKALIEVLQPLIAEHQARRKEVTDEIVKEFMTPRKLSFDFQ
Experimental: as §1, with “The dye was excited at 465 nm and emission recorded at 580 nm using the instrument’s filters. A heating ramp of 1°C/min from 25°C to 74°C was used, and one data point acquired for each degree increment.” left out
(§9) Each melting curve was assigned a quality score (Q), the ratio of the melting-associated increase in fluorescence (ΔFmelt) to the total fluorescence range (ΔFtotal). Q = 1 is a high-quality curve, while Q = 0 indicates no thermal transition. Though an arbitrary Q value cutoff was not applied to judge curve quality, the curves were manually curated with Q values reported.
as §3, §4, §5, §6, §7, §8

[3] = system: HCT-116 colon carcinoma cell line; assay: Cytotoxic assay on cancer cell line; type: cell-based; conditions: for IC50: Homo sapiens, HCT-116, inhibitory concentration for 50% growth inhibition, read-out: HCT-116 (IC-50)
Experimental: Antimicrobial and anti-cancer tests were performed as in [80].

[4] = target: Ubiquitin conjugating enzyme (UCE) (Plasmodium falciparum, UniProt Q8I607); assay: Thermal shift (thermal melt) assay, Sypro orange; type: binding, P. falciparum; conditions: for Kd: approximate, computed from the thermal shift, read-out: KD (Approx)
Chain of Ubiquitin conjugating enzyme (UCE) (Q8I607 1-147): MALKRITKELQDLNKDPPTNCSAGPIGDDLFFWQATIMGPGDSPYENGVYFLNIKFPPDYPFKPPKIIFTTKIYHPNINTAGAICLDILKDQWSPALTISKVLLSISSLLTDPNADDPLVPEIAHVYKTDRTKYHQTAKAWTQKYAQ
Experimental: as §1, §2, §3, §4, §5, §6, §7, §8

[5] = target: T2, 1000006: catalytic domain of protein tyrosine phosphatase (2G59) (Homo sapiens, UniProt Q16827); assay: Thermal shift (thermal melt) assay, Sypro orange; type: binding, H. sapiens; conditions: for ΔTm: in °C (unit assumed)
T2 construct: the catalytic domain of PTP from H. sapiens (PDB ID: 2G59) (1000006); New York structural genomics consortium (gift)
T2 sequence (Q16827 938-1195 limits assumed): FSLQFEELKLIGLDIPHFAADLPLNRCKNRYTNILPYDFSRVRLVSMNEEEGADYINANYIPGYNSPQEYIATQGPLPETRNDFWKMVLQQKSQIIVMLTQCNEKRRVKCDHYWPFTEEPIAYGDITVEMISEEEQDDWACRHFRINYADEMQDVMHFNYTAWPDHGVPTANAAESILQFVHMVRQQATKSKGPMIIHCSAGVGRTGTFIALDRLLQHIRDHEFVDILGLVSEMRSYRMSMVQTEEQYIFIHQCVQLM
Experimental: as §1, §2, §3, §4, §5, §6, §7, §8

[6] = target: E. coli dihydrofolate reductase (DHFR) (Escherichia coli, UniProt P0ABQ4); assay: biochemical; type: binding; conditions: Table S3; for Kd: computed from the thermal shifts obtained, read-out: KD (Approx); for Q (quality score): ratio ΔFmelt/ΔFtotal of the melting curve; for ΔTm: thermal shift, in °C (unit assumed)
Chain of E. coli dihydrofolate reductase (DHFR) (P0ABQ4 whole entry): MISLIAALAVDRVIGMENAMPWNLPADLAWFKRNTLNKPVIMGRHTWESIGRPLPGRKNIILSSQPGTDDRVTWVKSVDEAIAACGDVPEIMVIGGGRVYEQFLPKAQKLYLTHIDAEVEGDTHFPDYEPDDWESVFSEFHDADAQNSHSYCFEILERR
Experimental: as §1, with “The dye was excited at 465 nm and emission recorded at 580 nm using the instrument’s filters. A heating ramp of 1°C/min from 25°C to 74°C was used, and one data point acquired for each degree increment.” left out
as §9, §3, §4, §5, §6, §7, §8

[7] = target: T3, 1000001: Carboxy-terminus phosphatase domain of protein tyrosine phosphatase (2NV5) (Mus musculus, UniProt Q64487); assay: Thermal shift (thermal melt) assay, Sypro orange; type: binding, M. musculus; parameters: key to Q (quality score): Q = ΔFmelt/ΔFtotal; 1 = high-quality curve, 0 = no transition; conditions: for ΔTm: in °C (unit assumed); for Q (quality score): ratio ΔFmelt/ΔFtotal
T3 construct: The C-terminal phosphatase domain from R. norvegicus (PDB ID: 2NV5) (1000001); New York structural genomics consortium (gift)
T3 sequence (Q64487 1331-1621): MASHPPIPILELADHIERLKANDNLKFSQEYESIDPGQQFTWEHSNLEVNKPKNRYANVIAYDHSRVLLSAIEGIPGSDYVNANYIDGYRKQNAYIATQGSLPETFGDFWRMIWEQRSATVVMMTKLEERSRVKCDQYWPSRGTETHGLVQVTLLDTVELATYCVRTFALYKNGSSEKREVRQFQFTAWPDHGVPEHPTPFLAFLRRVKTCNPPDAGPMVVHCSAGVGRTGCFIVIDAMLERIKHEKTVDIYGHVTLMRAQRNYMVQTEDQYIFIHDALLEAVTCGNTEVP
Experimental: as §1, §2, §3, §4, §5, §6, §7, §8

[8] = thermal shift, 1 mM ligand, 10 μM protein
[9] = Table S4, TrpRS, computed from the thermal shifts obtained, read-out: KD (Approx)
[10] = Table S4, TrpRS, in °C (unit assumed)
[11] = approximate, computed from the thermal shift, read-out: KD
[12] = inhibitory concentration for 50% growth inhibition
[13] = Table S6, known binders of 1000001 tested on 1000006
[14] = Table S4, protein 1000001, computed from the thermal shifts obtained, read-out: KD (Approx)
[15] = Table S6, 1000001, known binders of 1000001

Row | SMILES | Kd ([1]; read-out: KD (Approx)) [µM] | Kd [2, 9] [µM] | ΔTm [2, 10] | Q (quality score) ([2]; Table S4, TrpRS) | Kd [2, 11] [µM] | HCT-116 (IC-50) [3, 12] [µg/mL] | ΔTm [5, 13] | Kd [7, 14] [µM] | ΔTm ([7]; Table S4, protein 1000001) | Q (quality score) ([7]; Table S4, protein 1000001) | further results
1 | O=C1C[C@@H](c2ccc(O)cc2)Oc2cc(O)cc(O)c21 [NSC 34875] | 224 | – | – | – | – | – | – | – | – | – | Q (quality score of melting curve, ΔFmelt/ΔFtotal) [1]: 0.6; ΔTm ([1]; Table S5, 1 mM ligand): 1.74 °C
2 | O=C1c2cc(O)c(O)cc2OC(c2ccc(O)c(O)c2)C1O (stereo not shown) [NSC 36398] | 180 | – | – | – | – | – | – | – | – | – | Q (quality score of melting curve, ΔFmelt/ΔFtotal) [1]: 0.2; Kd ([1]; read-out: KD): 180 µM; ΔTm [1, 8]: 2.21 °C
3 | O=C(Nc1cccc([N+](=O)[O-])c1)c1cc2ccccc2cc1O [NSC 37168] | – | ~9.06 | 9.9 | 0.4 | ~9.1 | 1.34 | – | – | – | – | –
4 | O=C(Nc1ccc(Cl)cc1)c1cc2c(cc1O)[nH]c1ccccc12 [NSC 50651] | – | – | – | – | – | – | – | – | – | – | Q (quality score of melting curve, ΔFmelt/ΔFtotal) [4]: 0.13; ΔTm ([4]; Table S5, 1 mM ligand): 2.25 °C; Kd ([4]; listed as 50651): 197 µM; Kd ([4]; listed as NSC50651): 197 µM
5 | CCOc1ccc(NC(=O)c2cc3ccccc3cc2O)cc1 [NSC 50690] | – | ~7.74 | 10.27 | 0.8 | 7.7 | – | – | – | – | – | Kd ([5]; Table S4, protein 1000006, computed from the thermal shifts obtained, read-out: KD (Approx)): ~51.5 µM; ΔTm ([5]; Table S4, protein 1000006): 4.59; Q (quality score) ([5]; Table S4, protein 1000006, ratio ΔFmelt/ΔFtotal): 0.8; Kd [6]: ~463 µM; Q (quality score) [6]: 0.3; ΔTm [6]: 0.23
6 | Nc1ccc(NC(=O)c2ccc(C(=O)Nc3ccc(N)cc3)cc2)cc1 [NSC 55152] | – | ~39.6 | 6.17 | 0.95 | 39.6 | – | – | – | – | – | Kd [6]: ~73.8 µM; Q (quality score) [6]: 0.2; ΔTm [6]: 5.89
7 | Nc1ccn([C@@H]2O[C@H](CO)[C@@H](O)[C@@H]2O)c(=O)n1 [NSC 63878] | 183 | – | – | – | – | – | – | – | – | – | –
8 | Oc1cccc2nc3ccccc3nc12 [NSC 88882] | – | ~3.83 | 12.07 | 0.6 | ~3.8 | 4.44 | 4.39 | ~1.47 | 9.98 | 0.8 | ΔTm [7, 15]: 9.79; HCT-116 (IC-50) ([3]; Table S4): 4.44
9 | O=C(O)c1cc(O)ccc1N=Nc1ccccc1 [NSC 106863] | – | – | – | – | – | 14.5 | 0 | ~6.47 | 7.4 | 1.1 | ΔTm [7, 15]: 7.34
10 | CC(=O)c1cc(O)c2ccccc2c1O [NSC 111552] | – | – | – | – | – | 2.2 | 29.52 | ~0.709 | 11.3 | 0.007 | –
11 | Cc1nc2c(O)cccc2cc1CO [NSC 227309] | 371 | – | – | – | – | – | – | – | – | – | Q (quality score of melting curve, ΔFmelt/ΔFtotal) [1]: 0.8; ΔTm ([1]; Table S5, 1 mM ligand): 0.64 °C
12 | CCCCC(=O)OCC(=O)[C@]1(O)Cc2c(O)c3c(c(O)c2[C@@H](O[C@H]2C[C@H](NC(=O)C(F)(F)F)[C@H](O)[C@H](C)O2)C1)C(=O)c1c(OC)cccc1C3=O [NSC 246131, valrubicin, reference compound] | – | – | – | – | – | – | 5.62 | ~1.47 | 9.99 | 0.2 | ΔTm [7, 15]: 10.31; Kd [7, 11]: ~1.5 µM; IC50 [3]: 0.024 µg/mL (≈ 0.0332 µM)
13 | CCN(CC)CCNC(=O)c1c(C)[nH]c(/C=C2\C(=O)Nc3ccc(F)cc32)c1C [NSC 750690, Sunitinib, reference compound] | – | – | – | 1.3 | – | 1.11 | – | – | – | – | ΔTm [2, 8]: 14.57 °C; IC50 [3]: 1.1 µg/mL (≈ 2.76 µM)
